Patent publication US10919935B2, “Antimicrobial peptide derived from myxinidin peptide and uses thereof” (INDUSTRY-ACADEMIC COOPERATION FOUNDATION, CHOSUN UNIVERSITY, priority 2015, dated 2021)
Residues, ends and D or L forms follow the SMILES beside them.

Assays:
[1] = test system: Escherichia coli 1238; assay: MIC at salt concentration (Example 3); assay type: cell-based
Experimental: (§1) To compare the antimicrobial activity of the peptide produced by the method of Example 1, the inventors of the present invention measured the minimum growth inhibitory concentration (MIC), which is minimum concentration of the peptide showing no dissociation of bacterial cells, at salt concentration.
(§2) Specifically, the bacterial strain described in the above Table 2 was cultured in each medium to a mid-log phase. Then, after dilution to bacterial cell concentration of 2×10^5 cells/100 μl, the cells were inoculated to a microtiter plate (NUNC, USA). Thereafter, myxinidin 1, myxinidin 2, or myxinidin 3 peptides which have been synthesized in Example 1 above was diluted, 1/2 times for each, with BSA+150 mM sodium chloride (NaCl) solution, physiological saline (PBS) solution, or 10 mM sodium phosphate (SP) solution in a 96-well plate. After adding the cells to a plate, the cells were cultured for 12 hours at 37° C. By using a microtiter plate reader (Merck Elisa reader, Germany), the absorbance was measured at a wavelength of 600 nm to determine the MIC value of each bacterial strain. As a control group, myxinidin as a mother peptide was subjected to the same processes as above and the MIC value of each bacterial strain was obtained.

[2] = test system: Escherichia coli; assay: MIC at salt concentration (Example 3); assay type: cell-based
Experimental: as §1, §2

[3] = test system: Escherichia coli 1229; assay: MIC at salt concentration (Example 3); assay type: cell-based
Experimental: as §1, §2

[4] = test system: TNF-α, IL-6, and IL-8; assay: ELISA of cytokines and chemokine in infected skin keratinocyte cells; assay type: cell-based, human; settings: keratinocytes infected with S. aureus, A. baumannii or P. aeruginosa; peptide at 2 times MIC
Experimental: To specifically determine the anti-inflammatory effect of the synthetic peptide of the present invention, infection with Acinetobacter baumannii, Pseudomonas aeruginosa, or Staphylococcus aureus and a treatment with myxinidin 2 and myxinidin 3 synthetic peptides were carried out, and interleukin-6 (IL-6) and interleukin-8 (IL-8), which are a cytokine and a chemokine, and tumor necrosis factor alpha (TNF-α) were analyzed by enzyme-linked immunosorbent assay.
Specifically, interleukin-6, interleukin-8, and tumor necrosis factor-α were analyzed by a human immune assay kit. Human skin keratinocyte cells were infected with Staphylococcus aureus, Acinetobacter baumannii, or Pseudomonas aeruginosa, which are the bacterial strain having tolerance to antibiotics, followed by a treatment with the peptide at a concentration that is 2 times higher than the minimum inhibitory concentration to have a reaction. After that, only the supernatant was collected and subjected to an enzyme-linked immunosorbent assay.

[5] = test system: membrane of Staphylococcus aureus; assay: Confocal microscopy analysis with PI (Propidium iodide); assay type: cell-based; settings: reaction for 10 minutes
Experimental: Specifically, myxinidin 2 or myxinidin 3, which have been synthesized in the above Example 1, was treated with PI (Propidium Iodide) solution and Escherichia coli or Staphylococcus aureus followed by reaction for 10 minutes. After the reaction, only pure Escherichia coli were collected by centrifuge (4,000 rpm) followed by removal of supernatant. Then, by adding 50 μl of physiological saline (PBS), cell aggregate was removed. By using LSM510 confocal microscope, the working mechanism of the peptide on Escherichia coli and Staphylococcus aureus membrane was determined.

[6] = test system: Salmonella typhimurium KCTC 1926; assay type: cell-based
Experimental: (§3) To compare the antimicrobial activity of the peptide produced by the method of Example 1, the inventors of the present invention measured the growth minimum inhibitory concentration (MIC), which is minimum concentration of the peptide showing no dissociation of bacterial cells.
(§4) Specifically, the bacterial strain described in the following Table 2 was purchased and cultured in each medium to a mid-log phase. Then, after dilution to bacterial cell concentration of 2×10^5 cells/100 μl, the cells were inoculated to a microtiter plate (NUNC, USA). Thereafter, myxinidin 1, myxinidin 2, or myxinidin 3 peptides which have been synthesized in Example 1 above was diluted, 1/2 times for each, with BSA (bovine serum albumin) solution in a 96-well plate. After adding the cells to a plate, the cells were cultured for 12 hours at 37° C. By using a microtiter plate reader (Merck Elisa reader, Germany), the absorbance was measured at a wavelength of 600 nm to determine the MIC value of each bacterial strain. As a control group, myxinidin as a mother peptide was subjected to the same processes as above and the MIC value of each bacterial strain was obtained.

[7] = test system: Listeria monocytogenes KCTC 3710; assay type: cell-based
Experimental: as §3, §4

[8] = test system: Escherichia coli ATCC 25922; assay type: cell-based
Experimental: as §3, §4

[9] = test system: Pseudomonas aeruginosa ATCC 27853; assay type: cell-based
Experimental: as §3, §4

[10] = test system: Staphylococcus aureus CCARM 3114; assay type: cell-based
Experimental: as §3, §4

[11] = test system: Pseudomonas aeruginosa Isolated strain 3592; assay type: cell-based
Experimental: as §3, §4

[12] = test system: Salmonella typhimurium CCARM 8013; assay type: cell-based
Experimental: as §3, §4

[13] = test system: Staphylococcus aureus CCARM 3709; assay type: cell-based
Experimental: as §3, §4

[14] = test system: Salmonella typhimurium CCARM 8009; assay type: cell-based
Experimental: as §3, §4

[15] = test system: Escherichia coli CCARM 1238; assay type: cell-based
Experimental: as §3, §4

[16] = test system: Escherichia coli CCARM 1229; assay type: cell-based
Experimental: as §3, §4

[17] = test system: Staphylococcus aureus ATCC 25923; assay type: cell-based
Experimental: as §3, §4

[18] = test system: Pseudomonas aeruginosa Isolated strain 5018; assay type: cell-based
Experimental: as §3, §4

[19] = test system: skin wound of mouse infected with bacteria having tolerance to antibiotics; assay: Healing of infected skin wound of mouse; assay type: in vivo, BALB/c female mouse; settings: 5 mm biopsy punch wound, peptide at 2 times MIC, observed for 2 weeks
From the text: Healing process of skin wound of a mouse induced by the synthetic peptide of the present invention, in which the mouse has been infected with Acinetobacter baumannii, Pseudomonas aeruginosa, or Staphylococcus aureus as the bacterial strain having tolerance to antibiotics, was observed during different time periods. The animal tissue was stained by hematoxylin and eosin (H & E) staining to examine the skin tissue having inflammation.
Specifically, a wound was created in a 6 week to 7 week old BALB/c female mouse using 5 mm biopsy punch. Then, the mouse was infected with Staphylococcus aureus, Acinetobacter baumannii, or Pseudomonas aeruginosa, which are the bacterial strain having tolerance to antibiotics, followed by administration of the peptide at a concentration that is 2 times higher than the minimum inhibitory concentration.

[20] = NaCl (BSA+150 mM sodium chloride)

Compound: CC[C@H](C)[C@H](NC(=O)[C@H](Cc1c[nH]c2ccccc12)NC(=O)[C@H](CCCNC(=N)N)NC(=O)[C@@H](NC(=O)[C@@H](N)CCCNC(=N)N)[C@@H](C)CC)C(=O)N[C@@H](CC(C)C)C(=O)N[C@@H](CCCNC(=N)N)C(=O)N[C@@H](Cc1ccc(O)cc1)C(=O)N[C@@H](Cc1c[nH]c2ccccc12)C(=O)N[C@@H](CCCNC(=N)N)C(=O)N[C@@H](Cc1c[nH]c2ccccc12)C(=O)N[C@@H](CO)C(N)=O [Myxinidin 3, RIRWILRYWRWS-NH2] (H-RIRWILRYWRWS-NH2; N-terminus assumed)
- Antimicrobial activity (MIC) according to salt concentration [1, 20]: 8
- Antimicrobial activity (MIC) according to salt concentration ([1]; PBS): 4
- Antimicrobial activity (MIC) according to salt concentration ([1]; SP (10 mM sodium phosphate)): 2
- Antimicrobial activity (MIC) according to salt concentration [2, 20]: 8
- Antimicrobial activity (MIC) according to salt concentration ([2]; PBS): 2
- Antimicrobial activity (MIC) according to salt concentration ([2]; SP (10 mM sodium phosphate)): 2
- Antimicrobial activity (MIC) according to salt concentration [3, 20]: 2
- Antimicrobial activity (MIC) according to salt concentration ([3]; PBS): 2
- Antimicrobial activity (MIC) according to salt concentration ([3]; SP (10 mM sodium phosphate)): 2
- Expression of cytokine and chemokine (IL-6, TNF-α, IL-8; ELISA) [4]: has decreased
- Activity on membrane (PI, confocal microscopy) [5]: work on the membrane of Escherichia coli and Staphylococcus aureus to show PI
- Minimum growth inhibitory concentration [6]: 1 µM
- Minimum growth inhibitory concentration [7]: 1 µM
- Minimum growth inhibitory concentration [8]: 0.5 µM
- Minimum growth inhibitory concentration [9]: 2 µM
- Minimum growth inhibitory concentration [10]: 8 µM
- Minimum growth inhibitory concentration [11]: 8 µM
- Minimum growth inhibitory concentration [12]: 4 µM
- Minimum growth inhibitory concentration [13]: 2 µM
- Minimum growth inhibitory concentration [14]: 4 µM
- Minimum growth inhibitory concentration [15]: 2 µM
- Minimum growth inhibitory concentration [16]: 1 µM
- Minimum growth inhibitory concentration [17]: 0.25 µM
- Minimum growth inhibitory concentration [18]: 8 µM
- Wound healing of infected mouse skin wound [19]: showed epidermalization and wound maturation

Compound: CC[C@H](C)[C@H](NC(=O)[C@H](Cc1c[nH]c2ccccc12)NC(=O)[C@H](CCCCN)NC(=O)[C@@H](NC(=O)[C@@H](N)CCCCN)[C@@H](C)CC)C(=O)N[C@@H](CC(C)C)C(=O)N[C@@H](CCCCN)C(=O)N[C@@H](Cc1ccc(O)cc1)C(=O)N[C@@H](Cc1c[nH]c2ccccc12)C(=O)N[C@@H](CCCCN)C(=O)N[C@@H](Cc1c[nH]c2ccccc12)C(=O)N[C@@H](CO)C(N)=O [Myxinidin 2, KIKWILKYWKWS-NH2] (H-KIKWILKYWKWS-NH2; N-terminus assumed)
- Antimicrobial activity (MIC) according to salt concentration [1, 20]: 8
- Antimicrobial activity (MIC) according to salt concentration ([1]; PBS): 2
- Antimicrobial activity (MIC) according to salt concentration ([1]; SP (10 mM sodium phosphate)): 4
- Antimicrobial activity (MIC) according to salt concentration [2, 20]: 8
- Antimicrobial activity (MIC) according to salt concentration ([2]; PBS): 4
- Antimicrobial activity (MIC) according to salt concentration ([2]; SP (10 mM sodium phosphate)): 2
- Antimicrobial activity (MIC) according to salt concentration [3, 20]: 8
- Antimicrobial activity (MIC) according to salt concentration ([3]; PBS): 2
- Antimicrobial activity (MIC) according to salt concentration ([3]; SP (10 mM sodium phosphate)): 2
- Expression of cytokine and chemokine (IL-6, TNF-α, IL-8; ELISA) [4]: has decreased
- Activity on membrane (PI, confocal microscopy) [5]: work on the membrane of Escherichia coli and Staphylococcus aureus to show PI
- Minimum growth inhibitory concentration [6]: 2 µM
- Minimum growth inhibitory concentration [7]: 4 µM
- Minimum growth inhibitory concentration [8]: 1 µM
- Minimum growth inhibitory concentration [9]: 4 µM
- Minimum growth inhibitory concentration [10]: 32 µM
- Minimum growth inhibitory concentration [11]: 8 µM
- Minimum growth inhibitory concentration [12]: 16 µM
- Minimum growth inhibitory concentration [13]: 2 µM
- Minimum growth inhibitory concentration [14]: 8 µM
- Minimum growth inhibitory concentration [15]: 4 µM
- Minimum growth inhibitory concentration [16]: 2 µM
- Minimum growth inhibitory concentration [17]: 0.25 µM
- Minimum growth inhibitory concentration [18]: 4 µM
- Wound healing of infected mouse skin wound [19]: showed epidermalization and wound maturation

Compound: CC[C@H](C)[C@H](NC(=O)CN)C(=O)N[C@@H](Cc1c[nH]cn1)C(=O)N[C@@H](Cc1c[nH]cn1)C(=O)N[C@H](C(=O)N[C@@H](CC(C)C)C(=O)N[C@@H](CCCCN)C(=O)N[C@@H](Cc1ccc(O)cc1)C(=O)NCC(=O)N[C@@H](CCCCN)C(=O)N1CCC[C@H]1C(=O)N[C@@H](CO)C(N)=O)[C@@H](C)CC [Myxinidin 1, GIHHILKYGKPS-NH2] (H-GIHHILKYGKPS-NH2; N-terminus assumed)
- Antimicrobial activity (MIC) according to salt concentration [1, 20]: >32
- Antimicrobial activity (MIC) according to salt concentration ([1]; PBS): >32
- Antimicrobial activity (MIC) according to salt concentration ([1]; SP (10 mM sodium phosphate)): >32
- Antimicrobial activity (MIC) according to salt concentration [2, 20]: >32
- Antimicrobial activity (MIC) according to salt concentration ([2]; PBS): >32
- Antimicrobial activity (MIC) according to salt concentration ([2]; SP (10 mM sodium phosphate)): >32
- Antimicrobial activity (MIC) according to salt concentration [3, 20]: >32
- Antimicrobial activity (MIC) according to salt concentration ([3]; PBS): >32
- Antimicrobial activity (MIC) according to salt concentration ([3]; SP (10 mM sodium phosphate)): >32
- Minimum growth inhibitory concentration [6]: >32 µM
- Minimum growth inhibitory concentration [7]: >32 µM
- Minimum growth inhibitory concentration [8]: >32 µM
- Minimum growth inhibitory concentration [9]: >32 µM
- Minimum growth inhibitory concentration [10]: >32 µM
- Minimum growth inhibitory concentration [11]: >32 µM
- Minimum growth inhibitory concentration [12]: >32 µM
- Minimum growth inhibitory concentration [13]: >32 µM
- Minimum growth inhibitory concentration [14]: >32 µM
- Minimum growth inhibitory concentration [15]: >32 µM
- Minimum growth inhibitory concentration [16]: >32 µM
- Minimum growth inhibitory concentration [17]: >32 µM
- Minimum growth inhibitory concentration [18]: >32 µM
